Data taken from patent US10364226B2, “Pyridazinone compounds and uses thereof” (priority 2013, dated 2019).
pEC50, pIC50: −log10 of the molar value.

Tests used:
[1] = test system: Influenza strain A549 A/WSN/33 (H1N1); assay: Influenza Antiviral Assay; assay type: cell-based, Influenza A virus; details: Influenza A virus, A549, 20 h, neuraminidase fluorescence readout, read-out: % Inhibition
EN PA = EN PA (Influenza A virus, UniProt P15659); assay: EN PA FRET Inhibition Assay; assay type: biochemical; details: read-out: Potency

SMILES | pEC50 [1] | pIC50 (EN PA)
O=C(O)c1nn(-c2cc(C(F)(F)F)cc(C(F)(F)F)c2)cc(O)c1=O [Compound 20] | < 4.00 | 6.00 to 7.00
O=C(NCc1ccccc1)c1nn(CC2(c3cccnc3)CCCC2)cc(O)c1=O [Compound 807] | > 4.70 | > 7.00
O=C1NCC/C=C/Cc2ccc3c(C(=O)C(F)(F)F)cn(c3c2)C2(CCCC2)Cn2cc(O)c(=O)c1n2 [Compound 836] | < 4.00 | ≤ 6.00
O=C(O)c1nn(-c2ccccc2N2CCCC2Cc2ccccc2)cc(O)c1=O (stereo not drawn) [Compound 203] | 4.00 to 4.70 | 6.00 to 7.00
O=C(O)c1nn(CCc2cccc(C(F)(F)F)c2)cc(O)c1=O [Compound 412] | < 4.00 | > 7.00
CNC(=O)c1nn(CC2(n3ccc4cc(OC)cnc43)CCCC2)cc(O)c1=O [Compound 886] | > 4.70 | > 7.00
